In patent US8871756B2 (Hoffmann-La Roche Inc., priority 2011, dated 2014):

What follows are molecules tested on RSV Long strain (assay: Viral cytopathic effect (CPE) assay, anti-RSV activity). Settings: human respiratory syncytial virus, 144 h, RSV Long strain (ATCC); cell viability after 6 days, Cell Counting kit-8.
Format: cell-based, Respiratory Syncytial Virus
Summary of the method: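 Cells (6×10^3/well, DMEM with 10% FBS) were infected next day with RSV Long strain, at a dose giving approximately 80–90% CPE, alongside serial half-log compound dilutions. Viability was read after 6 days by CCK-8 absorbance at 450 nm (reference 630 nm), and EC50 was derived from it.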

SMILES | EC50 [µM]
NC1(CNc2nc(N3CCS(=O)(=O)c4ccccc4C3)nc3ccccc23)COC1 [Example 57-3, N-[(3-Aminooxetan-3-yl)methyl]-2-(1,1-dioxido-2,3-dihydro-1,4-benzothiazepin-4(5H)-yl)quinazolin-4-amine] | 0.023
Cc1ccc2nc(N3CCS(=O)(=O)c4ccccc4C3)cc(NCC3(N)COC3)c2c1 [Example 2-2, N-[(3-Aminooxetan-3-yl)methyl]-2-(1,1-dioxido-2,3-dihydro-1,4-benzothiazepin-4(5H)-yl)-6-methylquinolin-4-amine] | 0.002
Cc1ccc2nc(N3CCS(=O)(=O)c4ccccc4C3)cc(NCC3CCCN3)c2c1 (stereo not drawn) [Example 3-35, 2-(1,1-Dioxido-2,3-dihydro-1,4-benzothiazepin-4(5H)-yl)-6-methyl-N-(pyrrolidin-2-ylmethyl)quinolin-4-amine] | 0.013
Cc1ccc2nc(N3CCS(=O)(=O)c4ccccc4C3)cc(C)c2c1 [Example 99, 4-(4,6-Dimethylquinolin-2-yl)-2,3,4,5-tetrahydro-1,4-benzothiazepine 1,1-dioxide] | 3
NCCCNc1cc(N2CCS(=O)(=O)c3ccccc3C2)nc2cccc(Cl)c12 [Example 9-13, N-[5-Chloro-2-(1,1-dioxido-2,3-dihydro-1,4-benzothiazepin-4(5H)-yl)quinolin-4-yl]propane-1,3-diamine] | 0.701
OCC(O)Cc1cc(N2CCCc3ccccc3C2)nc2ccc(Cl)cc12 (stereo not drawn) [Example 130-2, 3-[6-Chloro-2-(1,3,4,5-tetrahydro-2H-2-benzazepin-2-yl)quinolin-4-yl]propane-1,2-diol] | 7.27
Cc1ccc2nc(N3CCS(=O)(=O)c4ccccc4C3)cc(NC3CCCC(N)C3)c2c1 (stereo not drawn) [Example 3-16, N-[2-(1,1-Dioxido-2,3-dihydro-1,4-benzothiazepin-4(5H)-yl)-6-methylquinolin-4-yl]-cyclohexane-1,3-diamine] | 0.075
Cc1ccc2nc(N3CCS(=O)(=O)c4ccccc4C3)nc(NCCN)c2c1 [Example 90, N-[2-(1,1-Dioxido-2,3-dihydro-1,4-benzothiazepin-4(5H)-yl)-6-methylquinazolin-4-yl]ethane-1,2-diamine] | 0.005
Cc1ccc2nc(N3CCS(=O)(=O)c4ccccc4C3)cc(C(=O)C3CCNCC3)c2c1 [Example 100, [2-(1,1-Dioxido-2,3-dihydro-1,4-benzothiazepin-4(5H)-yl)-6-methylquinolin-4-yl](piperidin-4-yl)methanone] | 9.19
Cc1ccc2nc(N3CC[S+]([O-])c4ccccc4C3)cc(N3CCC(N)C3)c2c1 (stereo not drawn) [Example 19-4, 1-[6-Methyl-2-(1-oxido-2,3-dihydro-1,4-benzothiazepin-4(5H)-yl)quinolin-4-yl]pyrrolidin-3-amine] | 0.02
Cc1ccc2nc(N3CCS(=O)(=O)c4ccccc4C3)nc(NCCO)c2c1 [Example 57-7, 2-{[2-(1,1-Dioxido-2,3-dihydro-1,4-benzothiazepin-4(5H)-yl)-6-methylquinazolin-4-yl]amino}ethanol] | 0.081
Cc1ccc2nc(N3CC[S+]([O-])c4ccccc4C3)nc(NCC(F)CN)c2c1 (stereo not drawn) [Example 55-3, 2-Fluoro-N-[6-methyl-2-(1-oxido-2,3-dihydro-1,4-benzothiazepin-4(5H)-yl)quinazolin-4-yl]propane-1,3-diamine] | 0.006
Cc1ccc2nc(N3CCC(F)(F)c4ccccc4C3)nc(NCC(CN)(CO)CO)c2c1 [Example 114-4, 2-(Aminomethyl)-2-({[2-(5,5-difluoro-1,3,4,5-tetrahydro-2H-2-benzazepin-2-yl)-6-methylquinazolin-4-yl]amino}methyl)propane-1,3-diol] | 0.186
CCOc1ccc2c(c1)CN(c1cc(NCCN)c3ccccc3n1)CCC2 [Example 121, N-[2-(8-Ethoxy-1,3,4,5-tetrahydro-2H-2-benzazepin-2-yl)quinolin-4-yl]ethane-1,2-diamine] | 1.1
Cc1ccc2nc(N3CCS(=O)(=O)c4ccccc4C3)cc(NCCC(=O)O)c2c1 [Example 14-2, N-[2-(1,1-Dioxido-2,3-dihydro-1,4-benzothiazepin-4(5H)-yl)-6-methylquinolin-4-1]-beta-alanine] | 8.79
